Entries after “also recorded” stand apart in the source; their conditions may differ. Like-named read-outs stand apart in the source and are kept apart here.
How the values were obtained:
[1] = tested on: T3SS-mediated secretion of YopE-βLA fusion protein from Y. pestis strain JG153/pMM85; assay: microbe, parasite or virus in culture; type: cell-based; details: Yersinia pestis
[2] = tested on: P. aeruginosa T3SS (exoT-luxCDABE reporter strain MDM852); type: cell-based, Pseudomonas aeruginosa
[3] = tested on: Chlamydia trachomatis L2 in Hep-2 cells; assay: Chlamydia trachomatis growth inhibition assay; type: cell-based
Procedure: Inhibition of the growth of Chlamydia trachomatis L2 strain by compounds was measured in 24-well plates essentially according to the method of Wolf et al. (59). Confluent monolayer Hep-2 cells were infected with L2 at an MOI of 0.5 and treated with compounds at indicated concentrations for 48 h. Then cultures were collected and sonicated. Entire lysates were used for counting inclusion forming units (IFUs) as a measurement of production of Chlamydia progeny elementary bodies (EBs) by re-plating onto fresh HeLa monolayers. An uninhibited control (DMSO only) and a complete inhibition control (chloramphenicol, 200 μg/ml) were included. Experiments were done in triplicate.

[4] = tested on: P. aeruginosa; assay: Minimum inhibitory concentration (broth microdilution); details: Pseudomonas aeruginosa, read-out: MIC vs. P. aeruginosa
[5] = tested on: HeLa cell internalization of P. aeruginosa; assay: Gentamicin protection assay of bacterial internalization; details: 50 μM, ExoT-producing P. aeruginosa, MOI 10
[6] = tested on: T3SS-mediated secretion of ExoS′-βLA fusion protein from P. aeruginosa strain MDM973; assay: microbe, parasite or virus in culture; type: cell-based, Pseudomonas aeruginosa; details: for IC50: Pseudomonas aeruginosa
[7] = 50 μM added after 2.5 hours of T3SS induction

CC(Oc1ccc(Cl)cc1Cl)C(=O)NCc1ccc2c(c1)OCO2 (racemic) [Compound 1, N-(benzo[d][1,3]dioxol-5-ylmethyl)-2-(2,4-dichlorophenoxy)propanamide]
IC50 ([1]; read-out: IC50 of YopE-βLA secretion from Y. pestis strain JG153): ~38 µM | IC50 ([1]; read-out: yopE-βLA IC50): 22 µM | Serum Effect ([2]; % inhibition of exoT-lux RLU in the absence of serum/% inhibition in the presence of 10% fetal calf serum, both at 50 μM compound): 3.7 | z-score in the high throughput screen ([2]; strain MDM852, RLU at 200 minutes): 10 | reduction of growth of C. trachomatis L2 in Hep-2 cells ([3]; 50 μM, MOI 0.5, listed as MBX 1641): significantly reduced; also recorded: inhibits the growth | concentration dependence of effect on C. trachomatis growth in Hep-2 cells ([3]; FIG. 3D): concentration-dependent effect | MIC [4]: > 100 µM | stimulation of internalization of bacterial cells by HeLa cells [5]: over 11 fold | time to 50% inhibition of ExoS′-βLA secretion [6, 7]: ≤ 15 min | time to 100% inhibition of ExoS′-βLA secretion [6, 7]: ≤ 45 min | IC50 ([6]; read-out: ExoS′-βLA IC50, Table 3, secretion from P. aeruginosa strain MDM973 reduced by 50%): 12.5 µM | IC50 ([6]; read-out: IC50 (μM) (ExoS′-βLA assay), Table 4): 10 µM | potency when administered during or after the 2.5 hour EGTA induction of T3SS ([6]; unpublished observations): equally potently

Reference: US8906945B2 (priority 2009, dated 2014)
